Measurements: US10596172B2 (Celgene CAR LLC, priority 2008, dated 2020)
Where two headings read alike, the source gives them in different places.

Test system: B cell lymphoma cell lines
Assay: B cell lymphoma proliferation assay
Type: cell-based
[1] = Homo sapiens, DOHH-2, DOHH2 B cell lymphoma cell line, read-out: EC50 (μM) DOHH2
[2] = Homo sapiens, WSUDLCL2, WSU-DLCL2 B cell lymphoma cell line, read-out: EC50 (μM) WSU-DLCL2
[3] = DHL4 B cell lymphoma cell line, read-out: EC50 (μM) DHL4

SMILES	EC50 [1]	EC50 [2]	EC50 [3]
C=CC(=O)Nc1cccc(Nc2nc(Nc3cccc(OCCCn4ccnc4)c3)ncc2F)c1 [Compound I-204, N-(3-(2-(3-(3-(1H-imidazol-1-yl)propoxy)phenylamino)-5-fluoropyrimidin-4-ylamino)phenyl)acrylamide]	1 to 10 µM	1 to 10 µM	
C=CC(=O)Nc1cccc(Oc2nc(Nc3cccc(OCC4CCCN(C)C4)c3)ncc2F)c1 (centres unmarked) [Compound I-81, N-(3-(5-fluoro-2-(3-((1-methylpiperidin-3-yl)methoxy)phenylamino)pyrimidin-4-yloxy)phenyl)acrylamide]	0.1 to 1 µM		
C=CC(=O)Nc1cccc(Nc2nc(Nc3ccc(OCC4CCN(C)CC4)cc3)ncc2F)c1 [Compound I-90, N-(3-(5-fluoro-2-(4-((1-methylpiperidin-4-yl)methoxy)phenylamino)pyrimidin-4-ylamino)phenyl)acrylamide]	0.1 to 1 µM		
C=CC(=O)Nc1cccc(Nc2nc(Nc3ccc(OC)nc3)ncc2C(N)=O)c1 [Compound I-209, 4-(3-acrylamidophenylamino)-2-(6-methoxypyridin-3-ylamino)pyrimidine-5-carboxamide]	> 10 µM	1 to 10 µM	
C=CC(=O)Nc1cccc(Nc2nc(Nc3ccc4c(c3)NCCO4)ncc2F)c1 [Compound I-174]	1 to 10 µM		
C=CC(=O)Nc1cc(Nc2nc(Nc3ccc(OCCOC)cc3)ncc2F)ccc1F [Compound I-87, N-(2-fluoro-5-(5-fluoro-2-(4-(2-methoxyethoxy)phenylamino)pyrimidin-4-ylamino)phenyl)acrylamide]	1 to 10 µM		
C=CC(=O)N1CCc2ccc(Nc3nc(Nc4ccc(OC)nc4)ncc3F)cc21 [Compound I-166, 1-(6-(5-fluoro-2-(6-methoxypyridin-3-ylamino)pyrimidin-4-ylamino)indolin-1-yl)prop-2-en-1-one]	1 to 10 µM	1 to 10 µM	1 to 10 µM
C=CC(=O)Nc1cccc(Nc2nc(Nc3ccc4c(cnn4C)c3)ncc2F)c1 [Compound I-155]	1 to 10 µM	1 to 10 µM	1 to 10 µM
COCCOc1ccc(Nc2ncc(F)c(Nc3cccc(NC(=O)/C=C/CN4CC[C@H](O)C4)c3)n2)cc1 [Compound I-88, (S,E)-N-(3-(5-fluoro-2-(4-(2-methoxyethoxy)phenylamino)pyrimidin-4-ylamino)phenyl)-4-(3-hydroxypyrrolidin-1-yl)but-2-enamide]	1 to 10 µM		
C=CC(=O)Nc1cccc(Nc2nc(Nc3ccc(OCCCS(C)(=O)=O)nc3)ncc2F)c1 [Compound I-80, N-(3-(5-fluoro-2-(6-(3-(methylsulfonyl)propoxy)pyridin-3-ylamino)pyrimidin-4-ylamino)phenyl)acrylamide]	0.1 to 1 µM		
C=CC(=O)Nc1cccc(Nc2nc(Nc3ccc(OCC4CCN(C)CC4)nc3)ncc2F)c1 [Compound I-78, N-(3-(5-fluoro-2-(6-((1-methylpiperidin-4-yl)methoxy)pyridin-3-ylamino)pyrimidin-4-ylamino)phenyl)acrylamide]	0.1 to 1 µM		
C=CC(=O)Nc1cccc(Nc2nc(Nc3ccc(OCCOC)nc3)ncc2F)c1 [Compound I-103, N-(3-(5-fluoro-2-(6-(2-methoxyethoxy)pyridine-3-ylamino)pyrimidin-4-ylamino)phenyl)acrylamide]		1 to 10 µM	
C=CC(=O)Nc1cccc(Nc2nc(Nc3cccc(OCCCN4CCOCC4)c3)ncc2F)c1 [Compound I-208, N-(3-(5-fluoro-2-(3-(3-morpholinopropoxy)phenylamino)pyrimidin-4-ylamino)phenyl)acrylamide]	1 to 10 µM	1 to 10 µM	
C=CC(=O)Nc1cccc(Nc2nc(Nc3cc(OC)c(OC)c(OC)c3)ncc2F)c1 [Compound I-133, 4-(3-acrylamidophenylamino)-5-fluoro-2-(3,4,5-trimethoxyphenylamino)-pyrimidine]	0.1 to 1 µM		< 0.1 µM
C=CC(=O)Nc1cccc(N(C(=O)C=C)c2nc(Nc3ccc(OC)nc3)ncc2C#N)c1 [Compound I-171, N-(3-acrylamidophenyl)-N-(5-cyano-2-(6-methoxypyridin-3-ylamino)pyrimidin-4-yl)acrylamide]	1 to 10 µM		
C=CC(=O)Nc1cccc(Nc2nc(Nc3ccc(OCCOC)nc3)ncc2C(C)=O)c1 [Compound I-122, N-(3-{5-Acetyl-2-[6-(2-methoxy-ethoxy)-pyridin-3-ylamino]-pyrimidin-4-ylamino}-phenyl)-acrylamide]	1 to 10 µM		
C=CC(=O)N1CCOc2ccc(Nc3nc(Nc4ccc(OC)nc4)ncc3F)cc21 [Compound I-194, 1-(6-(5-fluoro-2-(6-methoxypyridin-3-ylamino)pyrimidin-4-ylamino)-2H-benzo[b][1,4]oxazin-4(3H)-yl)prop-2-en-1-one]	1 to 10 µM	1 to 10 µM	1 to 10 µM
C=CC(=O)Nc1cccc(Nc2nc(Nc3ccc(OC4CCC4)nc3)ncc2F)c1 [Compound I-79, N-(3-(2-(6-cyclobutoxypyridin-3-ylamino)-5-fluoropyrimidin-4-ylamino)phenyl)acrylamide]	1 to 10 µM		
C=CC(=O)N1CCOc2ccc(Nc3nc(Nc4ccc(N5CCCC5=O)cc4)ncc3C(C)=O)cc21 [Compound I-152, 1-{4-[5-Acetyl-4-(4-acryloyl-3,4-dihydro-2H-benzo[1,4]oxazin-6-ylamino)-pyrimidin-2-ylamino]-phenyl}-pyrrolidin-2-one]	1 to 10 µM		

SMILES	EC50 [1]	EC50 [2]	EC50 [3]
C=CC(=O)N1CCOc2ccc(Nc3nc(Nc4ccc(N5CCOCC5)cc4)ncc3C(C)=O)cc21 [Compound I-169, 1-{6-[5-Acetyl-2-(4-morpholin-4-yl-phenylamino)-pyrimidin-4-ylamino]-2,3-dihydro-benzo[1,4]oxazin-4-yl}-propenone]	1 to 10 µM		
C=CC(=O)N1CCOc2ccc(Nc3nc(Nc4ccc5c(c4)CC(=O)N5)ncc3C(C)=O)cc21 [Compound I-129, 5-[5-Acetyl-4-(4-acryloyl-3,4-dihydro-2H-benzo[1,4]oxazin-6-ylamino)-pyrimidin-2-ylamino]-1,3-dihydro-indol-2-one]	1 to 10 µM		
C=CC(=O)Nc1cccc(Nc2nc(Nc3ccc4c(c3)N(C(=O)C(F)(F)F)CCO4)ncc2F)c1 [Compound I-143, N-(3-(2-(4-trifluoroacetyl-2,3-dihydrobenzo[1,4]oxazin-6-yl)amino-5-fluoropyrimidin-4-ylamino)phenyl)acrylamide]	1 to 10 µM	1 to 10 µM	1 to 10 µM
C=CC(=O)Nc1cccc(Oc2nc(Nc3ccc(OC)nc3)ncc2C(C)=O)c1 [Compound I-188, N-{3-[5-Acetyl-2-(6-methoxy-pyridin-3-ylamino)-pyrimidin-4-yloxy]-phenyl}-acrylamide]	1 to 10 µM		
C=CC(=O)Nc1cccc(Nc2nc(Nc3ccc(OCc4ccccn4)c(Cl)c3)ncc2F)c1 [Compound I-86, N-(3-(2-(3-chloro-4-(pyridin-2-ylmethoxy)phenylamino)-5-fluoropyrimidin-4-ylamino)phenyl)acrylamide]	> 10 µM		
C=CC(=O)N1CCOc2ccc(Nc3nc(Nc4ccc(N(C)C(=O)C(F)(F)F)nc4)ncc3C(C)=O)cc21 [Compound I-142, N-(5-(5-acetyl-4-(4-acryloyl-3,4-dihydro-2H-benzo[b][1,4]oxazin-6-ylamino)pyrimidin-2-ylamino)pyridin-2-yl)-2,2,2-trifluoro-N-methylacetamide]	1 to 10 µM		
C=CC(=O)Nc1cccc(Nc2nc(Nc3ccccc3)ncc2C#N)c1 [Compound I-157, N-(3-(5-cyano-2-(phenylamino)pyrimidin-4-ylamino)phenyl)acrylamide]	1 to 10 µM	1 to 10 µM	1 to 10 µM
C=CC(=O)Nc1cccc(Nc2nc(Nc3ccc(OC)nc3)ncc2C#N)c1 [Compound I-173, N-(3-(5-cyano-2-(6-methoxypyridin-3-ylamino)pyrimidin-4-ylamino)phenyl)acrylamide]	1 to 10 µM		
C=CC(=O)Nc1cccc(Nc2nc(Nc3ccc(OC)c(OC)c3)ncc2F)c1 [Compound I-134, 4-(3acrylamidophenylamino)-5-fluoro-2-(3,4-dimethoxyphenylamino)-pyrimidine]	0.1 to 1 µM		< 0.1 µM
C=CC(=O)Nc1cccc(Oc2nc(Nc3ccc(OC)nc3)ncc2C)c1 [Compound I-186, N-(3-(2-(6-methoxypyridin-3-ylamino)-5-methylpyrimidin-4-yloxy)phenyl)acrylamide]	1 to 10 µM		1 to 10 µM
C=CC(=O)N1CCC[C@@H](Nc2nc(Nc3cccc(Cl)c3)ncc2F)C1 [Compound I-147, (R)-1-(3-(2-(3-chlorophenylamino)-5-fluoropyrimidin-4-ylamino)piperidin-1-yl)prop-2-en-1-one]	1 to 10 µM		
C=CC(=O)Nc1cccc(Nc2nc(Nc3ccc(OCCO)nc3)ncc2C(C)=O)c1 [Compound I-121, N-(3-{5-Acetyl-2-[6-(2-hydroxy-ethoxy)-pyridin-3-ylamino]-pyrimidin-4-ylamino}-phenyl)-acrylamide]	1 to 10 µM		
C=CC(=O)Nc1cccc(Nc2nc(Nc3ccc(OC)nc3)ncc2C2CC2)c1 [Compound I-167, N-(3-(5-cyclopropyl-2-(6-methoxypyridin-3-ylamino)pyrimidin-4-ylamino)phenyl)acrylamide]	1 to 10 µM		
C=CC(=O)Nc1cccc(Nc2nc(Nc3ccc4c(cnn4C(=O)OC(C)(C)C)c3)ncc2F)c1 [Compound I-151]	1 to 10 µM		1 to 10 µM
C=CC(=O)Nc1cccc(Nc2nc(Nc3ccc(OC(C)C)nc3)ncc2F)c1 [Compound I-172, N-(3-(5-fluoro-2-(6-isopropoxypyridin-3-ylamino)pyrimidin-4-ylamino)phenyl)acrylamide]	1 to 10 µM		
C=CC(=O)Nc1cccc(Oc2nc(Nc3ccc(OC)nc3)ncc2F)c1 [Compound I-217]	> 10 µM	> 10 µM	
C=CC(=O)Nc1cccc(Nc2nc(Nc3ccc(N(C)CCOC)nc3)ncc2F)c1 [Compound I-77, N-(3-(5-fluoro-2-(6-((2-methoxyethyl)(methyl)amino)pyridin-3-ylamino)pyrimidin-4-ylamino)phenyl)acrylamide]	0.1 to 1 µM		
C=CC(=O)Nc1cccc(Nc2nc(Nc3cccc(OCCCS(C)(=O)=O)c3)ncc2F)c1 [Compound I-138, 4-(3-acrylamidophenylamino)-5-fluoro-2-(3-(3-(methylsulfonyl)propoxy)phenylamino)-pyrimidine]	1 to 10 µM		1 to 10 µM
